Data: patent publication US6800464B2, “Arthrobacter D-carbamoylase and methods of preparing enantiomerically enriched D-amino acids” (Degussa AG, priority 2001, dated 2004)
Like-named read-outs stand apart in the source and are kept apart here. Each block holds one molecule with its values, some of them ahead of it.

How the values were obtained:
[1] = biological target: D-carbamoylase from Arthrobacter crystallopoietes DSM 20117 (Crystallibacter crystallopoietes, UniProt A0A1H1C375); assay: Substrate specificity of the purified D-carbamoylase (relative conversion of carbamoyl substrates); type: biochemical; settings: for Rel. act. / conversion of substrate (in words): 30° C.; for Rel. act.: 0.1 M potassium phosphate buffer pH 8.0, 20 mM isomer mixture or 10 mM pure isomer, D,L-Carbamoyl-phenylalanine set at 100% (2 U/mg); for conversion of substrate (in words): assay conditions of substrate spectrum, pH 8.0
Description: (§1) The homogeneously purified D-carbamoylase with the His-tag and ttg start codon (pMW1 —FIG. 5) was used for characterization of the enzyme obtained in this way. The enzyme was present in 0.1 M KPB pH 8.0.
To determine the substrate spectrum, the enzyme was incubated at a reaction temperature of 30° C. with the particular substrate in the presence of 0.1 M potassium phosphate buffer pH 8.0. To ensure the same concentration of the D-isomer, if the substrate was present as an isomer mixture a concentration of 20 mM was established; if the substrate was present as a pure isomer a concentration of 10 mM was established.

[2] = system: purified D-carbamoylase; assay: Cofactor dependence: inactivation by complexing agents and sulfhydryl reagents, reactivation by metal ions; type: biochemical, Arthrobacter crystallopoietes DSM 20117; settings: for inactivation of the enzyme by complexing agent: 10 mM, incubation at 25° C., 8-HQSA: within less than two hours
Description: as §1
In order to be able to differentiate the inactivation by the complexing agent from the thermal inactivation, an aliquot of the enzyme solution was co-incubated without 8-HQSA and the activity was monitored with respect to time. It was concluded that to reactivate the enzyme, the 8-HQSA had to be removed from the enzyme by gel filtration, and incubation had to be carried out in the presence of 2 mM metal ions. However, neither Cu^2+, Co^2+, Mn^2+, Mg^2+, Fe^2+ nor Zn^2+ led to a reactivation of the enzyme.

[3] = substrate: NC(=O)N[C@H](Cc1c[nH]c2ccccc12)C(=O)O; assay: Determination of kinetic parameters (Km, vmax) of the D-carbamoylase; type: biochemical, Arthrobacter crystallopoietes DSM 20117; settings: other: Michaelis-Menten kinetics, Enzymfit program; pH 8.0
Description: as §1
For determination of Vmax and Km, the rate of reaction v was plotted as a function of the substrate concentration. The calculation of the kinetic parameters was carried out via the Enzymfit program (developed at the Institute of Bioprocess Technology, University of Stuttgart). […] The reaction can be described here by Michaelis-Menten kinetics (see equation 1). [formula]

[4] = Determination of the optimum pH of the purified D-carbamoylase; type: biochemical; settings: pH range 6.5 to 9.0, DL-C-phenylalanine, 30° C., 100 mM buffers
Description: To determine the optimum pH of the purified D-carbamoylase, conversions were carried out at various pH values in a range from 6.5 to 9.0 with DL-C-phenylalanine as the substrate at 30° C. In order to be able to rule out concentration effects, the buffer concentration of all the buffers used (Tris, potassium phosphate and Tris-glycine) was adjusted to a value of 100 mM. The activity maximum of the D-carbamoylase was at pH 8.

Molecule: CSCCC(NC(N)=O)C(=O)O (racemic) [D,L-Carbamoyl-methionine]
Rel. act. [1]: 13%

Molecule: NC(=O)NC(CO)C(=O)O (racemic) [D,L-Carbamoyl-serine]
Rel. act. [1]: 35%

Molecule: CC(C)(C)C(NC(N)=O)C(=O)O (racemic) [D,L-Carbamoyl-tert-leucine]
Rel. act. [1]: 18%

Molecule: CC(C)C(NC(N)=O)C(=O)O (racemic) [D,L-Carbamoyl-valine]
Rel. act. [1]: 31%

inactivation of the D-carbamoylase by sulfhydryl reagents ([2]; 1 mM): complete inactivation
Molecule: O=C(O)c1ccccc1[N+](=O)[O-] [2-nitrobenzoate]

inactivation of the enzyme by complexing agent [2]: compete inhibition
Molecule: O=S(=O)(O)c1ccc(O)c2ncccc12 [8-hydroxyquinolinesulfonic acid]

Molecule: C[C@@H](NC(N)=O)C(=O)O [D-Carbamoyl-alanine]
Rel. act. [1]: 510%
conversion relative to all other substrates ([1]; compared with all other substrates of table 5): at least five times better

Rel. act. [1]: 80%
Molecule: NC(=O)N[C@H](Cc1c[nH]c2ccccc12)C(=O)O [D-Carbamoyl-tryptophan]

inactivation of the enzyme by complexing agent [2]: no inactivation
Molecule: O=C(O)CN(CCN(CC(=O)O)CC(=O)O)CC(=O)O [EDTA]

conversion of substrate (in words) [1]: not converted
Molecule: NC(=O)N[C@@H](Cc1c[nH]c2ccccc12)C(=O)O [L-carbamoyl-tryptophan]

Molecule: CC(C)[C@H](NC(N)=O)C(=O)O [L-carbamoyl-valine]
conversion of substrate (in words) [1]: not converted

Molecule: O=C(O)CI [iodine acetate]
inactivation of the D-carbamoylase by sulfhydryl reagents [2]: complete inactivation

Molecule: O=C(O)c1cc[c]([Hg][Cl])cc1 [para-chloro-mercury benzoate]
inactivation of the D-carbamoylase by sulfhydryl reagents ([2]; 1 mM): complete inactivation

Molecule: β-Ureido-propionate
Rel. act. [1]: 0%
conversion of substrate (in words) [1]: not converted

B1: D-carbamoylase from Arthrobacter crystallopoietes DSM 20117 (Crystallibacter crystallopoietes) (protein)
chain: MAKNLMLAVAQVGGIDSSESRPEVVARLIALLEEAASQGAELVVFPELTLTTFFPRTWFEEGDFEEYFDKSMPNDDVAPLFERAKDLGVGFYLGYAELTSDEKRYNTSILVNKHGDIVGKYRKMHLPGHADNREGLPNQHLEKKYFREGDLGFGVFDFHGVQVGMCLCNDRRWPEVYRSLALQGAELVVLGYNTPDFVPGWQEEPHAKMFTHLLSLQAGAYQNSVFVAAAGKSGFEDGHHMIGGSAVAAPSGEILAKAAGEGDEVVVVKADIDMGKPYKESVFDFAAHRRPDAYGIIAERKGRGAPLPVPFNVND
Km [3]: 7.5 mM
Vmax [3]: 2.4 U/mg

B2: D-carbamoylase: homogeneously purified recombinant D-carbamoylase from Arthrobacter crystallopoietes DSM 20117 (SEQ ID NO: 2) (protein)
chain: MAKNLMLAVAQVGGIDSSESRPEVVARLIALLEEAASQGAELVVFPELTLTTFFPRTWFEEGDFEEYFDKSMPNDDVAPLFERAKDLGVGFYLGYAELTSDEKRYNTSILVNKHGDIVGKYRKMHLPGHADNREGLPNQHLEKKYFREGDLGFGVFDFHGVQVGMCLCNDRRWPEVYRSLALQGAELVVLGYNTPDFVPGWQEEPHAKMFTHLLSLQAGAYQNSVFVAAAGKSGFEDGHHMIGGSAVAAPSGEILAKAAGEGDEVVVVKADIDMGKPYKESVFDFAAHRRPDAYGIIAERKGRGAPLPVPFNVND
modifications: OTHER INFORMATION: … DNA
activity maximum (optimum pH) [4]: 8
